Source: patent US20050287078A1, “Minimizing powder retention on surfaces” (MEDERIO AG, priority 2004, published 2005)

Assay: Ipratropium climate stability tests (fine particle dose out of HandiHaler, Andersen impactor)
Conditions: Atrovent powder, 1 month at 25° C./60% Rh or 40° C./75% Rh, FIG. 4
Protocol: The powder was withdrawn from the originator's capsules and transferred to the capsules again after climate storage. The aerodynamic fine particle fraction (FPF) in the emitted dose from the HandiHaler® was measured using Andersen impactors according to European Pharmacopoeia (EP) and US Pharmacopoeia (USP). All analytical work were then performed according to standardized methods using a state of the art High Performance Liquid Chromatograph (HPLC) system.
Aerodynamic fine particle fraction of metered and delivered dose out of Handihaler® using Atrovent® formulation powder was analyzed. Transfer of powder from and back into originator capsules was performed in relative humidity below 10%. The test was performed with 4 kPa pressure drop over the HandiHaler® at room temperature and laboratory ambient conditions.
An in-use stability test was carried out of the aerodynamic fine particle fraction of metered and delivered dose out of Handihaler®. From the blister holding the Atrovent® capsules the powder was transferred to a medium moisture barrier container and sealed. The containers were put for 1 month in 25° C. and 60% Rh. The container holding the powder was then put in an exicator for 2 h before tests were performed. The inhaler test was performed with 4 kPa pressure drop over the HandiHaler® at room temperature and laboratory ambient conditions. […]

CC(C)[N+]1(C)[C@@H]2CC[C@H]1CC(OC(=O)C(CO)c1ccccc1)C2.[Br-] (stereo partly shown) [ipratropium bromide]
Moisture sensitivity (drop in fine particle dose, FPD): very moisture sensitive
